“Also recorded” adds a separate entry of the source. No end group written: not given here.
Legend:
hCaV2.2 = assay: FLIPR Ca2+ fluorescence, KCl/CaCl2-stimulated SH-SY5Y cells; assay type: cell-based, human; conditions: 10 µM, added 5 min prior to KCl/CaCl2 (90 mM/5 mM)
Description: (§1) To further test the selectivity of sHt1a and sGg1a, we examined their activity on hNaV1.2/NaV1.7 and hCaV2.2 channels, as well as the hα3β2/4 nicotinic acetylcholine receptor (nAchR), that are endogenously expressed in the neuroblastoma cell line SH-SY5Y using a high-throughput fluorescent assay as previously described. In brief, SH-SY5Y cells were seeded at a density of 40,000 cells/well in black-walled imaging plates (Corning, Lowell, MA, USA), then incubated for 48 h at 37 °C in a 5% humidified CO2 incubator. On the day of the assay, cells were loaded with Calcium 4 No-wash dye (Molecular Devices) by reconstituting the lyophilised dye in physiological salt solution (PSS in mM: 140 NaCl, 11.5 glucose, 5.9 KCl, 1.4 MgCl2, 1.2 NaH2PO4, 5 NaHCO3, 1.8 CaCl2, 10 HEPES, pH 7.4). Cells were incubated with the dye for 30 min at 37 °C in a 5% humidified CO2 incubator. Gg1a and Ht1a (10 µM) were added 5 min prior to stimulation with either veratridine (50 µM, hNaV1.2/NaV1.7 activator), nicotine (30 µM, hα3β2/4 nAchR activator) or KCl/CaCl2 (90 mM/5 mM, CaV1.3/2.2 activator) Fluorescent responses were recorded using a FLIPR^Penta fluorescent plate reader (Molecular Devices) with excitation at 470–495 nm and emission at 515–575 nm.

hNaV1.5 = assay: Automated whole-cell patch clamp, hNaV1.5 + β1 in HEK 293 cells; assay type: cell-based, human; conditions: 3 μM, 50 ms pulse to −20 mV from −90 mV, ECS with 0.1% BSA, at least 2 min
Description: To examine for off-target activity on mammalian ion channels and receptors, we first tested the activity of sHt1a and Gg1a against human NaV channels. Whole-cell patch-clamp recordings were performed on Human Embryonic Kidney (HEK) 293 cells stably expressing human NaV1.4 or NaV1.5 in conjunction with the β1 subunit (SB Drug Discovery, Glasgow, United Kingdom) using a QPatch II automated electrophysiology platform (Sophion Bioscience, Ballerup, Denmark). Whole-cell currents were filtered at 8 kHz and acquired at 25 kHz. The linear leak was corrected by P/4 subtraction (leak potential −90 mV, leak sweep amplitude 10%). Series resistance across recorded cells ranged between 5 and 10 MΩ. The extracellular solution (ECS) consisted of (in mM): 145 NaCl, 4 KCl, 2 CaCl2, 1 MgCl2, 10 HEPES, and 10 glucose, adjusted to pH 7.4 with NaOH and to 305 mOsm/L with sucrose. The intracellular solution (ICS) consisted of (in mM): 140 CsF, 1 EGTA, 5 CsOH, 10 HEPES, and 10 NaCl, adjusted to pH 7.3 with CsOH and 320 mOsm/L with sucrose. Currents were elicited from a holding potential of −90 mV delivered with a 50 ms depolarising pulse to −20 mV every 20 s (0.05 Hz). Peptides were diluted in ECS containing 0.1% BSA and applied to cells for at least 2 min at the concentrations stated. Peak currents were normalised to the buffer control.

V. destructor mites = assay: Topical varroa assay of venom fractions / purified native peptides; assay type: in vivo, Varroa destructor; conditions: native peptide / HPLC fraction; Ht1a three cohorts of 5 mites, Gg1a two cohorts of 5 mites
Description: An outline of the project discovery pipeline is presented in Supplementary Fig. 1. To identify varroacidal venom peptides, we screened venoms for activity against V. destructor by topical application. Topical tests were performed in several stages. First, whole venom was tested to determine mortality for V. destructor. Hit venoms were then subjected to several fractionation steps to isolate the active compounds. For the initial venom screen, a panel of 50 arthropod venoms (Table 1) were topically applied to V. destructor mites. Venoms were dissolved in 90% acetonitrile (v/v), and a 10 μg venom aliquot was applied per mite (n = 5 mites per venom). The dorsal plate of V. destructor mites (average mass 0.38 mg) was fixed to adhesive tape (ScotchTM 666 3 M; 19 × 32.9 mm, double sided) on microscope slides (ground edges 90° frosted end, 76 × 26 mm). A Nanoject II (Automatic Injector with Glass Capillaries, Drummond Cat.No. 3-000-205 A) was used for topical application of venom and control (90% acetonitrile) solutions. […] Mite mortality was determined at various time intervals up to 48 h after the treatment using an Olympus stereomicroscope (SZX10/SZX2 Series). […] The percentage of mite mortality for each venom was calculated at 2, 6 and 24 h, and adjusted by correcting for the mortality of the corresponding control group receiving only 90% acetonitrile. […]

hNaV1.2/NaV1.7 = assay: FLIPR Ca2+ fluorescence, veratridine-stimulated SH-SY5Y cells; assay type: cell-based, human; conditions: 10 µM, added 5 min prior to veratridine (50 µM)
Description: as §1

Substance | effect on CaV2.2 (hCaV2.2) | effect on CaV2.2 (hCaV2.2; listed as sGg1a) | effect on hNaV1.5 currents (hNaV1.5) | effect on hNaV1.5 currents (hNaV1.5; listed as sGg1a) | topical varroacidal activity (V. destructor mites) | effect on neuronal NaV channels (hNaV1.2/NaV1.7) | effect on neuronal NaV channels (hNaV1.2/NaV1.7; listed as sGg1a) | effect on CaV2.2 (hCaV2.2; listed as sHt1a) | effect on hNaV1.5 currents (hNaV1.5; listed as sHt1a) | effect on neuronal NaV channels (hNaV1.2/NaV1.7; listed as sHt1a)
U1-macrothelitoxin-Gg1a | inactive | did not significantly affect | inactive | did not significantly affect | topical varroacidal activity; also recorded: confirmed | inactive | did not significantly affect |  |  | 
KYCAPRKAVCNTPADCCDKSSRCAYPNYGLGYYLDSEFFGKRKICSWRL (also: bicyclic or more (positions not given here)) [Ht1a, μ-gradutoxin-Ht1a] | inactive |  | inactive |  | contained the varroacidal activity; also recorded: confirmed | inactive |  | did not significantly affect | did not significantly affect | did not significantly affect

From article PMC13233288, “Spider venom peptides Ht1a and Gg1a are toxic to honeybee parasite Varroa destructor by topical application” (npj Drug Discovery, 2026)
